Laboratory results taken from paper PMC7722354, “7-Substituted 2-Nitro-5,6-dihydroimidazo[2,1-b][1,3]oxazines: Novel Antitubercular Agents Lead to a New Preclinical Candidate for Visceral Leishmaniasis” (Journal of Medicinal Chemistry, 2017).
≈ marks a conversion by molar mass, not a printed value.

Assays:
[1] = tested on: Leishmania infantum; test: L. inf growth inhibition in mouse macrophages (LMPH); type: cell-based; details: Macrophage, mean of at least two determinations
[2] = tested on: M. tb, strain H37Rv; test: LORA minimum inhibitory concentration assay (hypoxic); type: cell-based; details: Mycobacterium tuberculosis
[3] = tested on: Trypanosoma cruzi; test: T. cruzi growth inhibition on MRC-5 cells (LMPH); type: cell-based; details: MRC5
[4] = tested on: M. tb, strain H37Rv; test: MABA minimum inhibitory concentration assay (aerobic); type: cell-based, Mycobacterium tuberculosis; details: Mycobacterium tuberculosis, H37RV
[5] = tested on: human lung fibroblasts (MRC-5 cells); test: cytotoxicity toward MRC-5 cells (LMPH); type: cell-based; details: MRC5
[6] = tested on: Leishmania donovani; test: L. don amastigote mouse macrophage-based luciferase assay (CDRI); type: cell-based; details: in mouse macrophages, single test (CDRI)

SMILES | IC50 [1] [nM] | MIC [2] [µM] | IC50 [3] [nM] | MIC ([4]; aerobic, read-out: MIC MABA) [µM] | IC50 [5] [µM] | IC50 [6] [nM] | MIC ([4]; read-out: MIC MABA, aerobic) [µM]
CC1(COCc2ccc(OC(F)(F)F)cc2)CCn2cc([N+](=O)[O-])nc2O1 (stereo not drawn) [compound 21] | 300 | 3.3 (≈ 1.28 µg/mL) | 750 | 0.55 (≈ 0.213 µg/mL) | > 64 | 310 | 
O=[N+]([O-])c1cn2c(n1)OC(COCc1ccc(-c3ccc(F)cc3)cc1)CC2 (stereo not drawn) [compound 25, 7-{[(4′-Fluoro[1,1′-biphenyl]-4-yl)methoxy]methyl}-2-nitro-6,7-dihydro-5H-imidazo[2,1-b][1,3]oxazine] | 170 | 1.3 (≈ 0.498 µg/mL) | 530 | 0.08 (≈ 0.0307 µg/mL) | > 64 | 20 | 
CC1(COCc2ccc(-c3ccc(F)cc3)cc2)CCn2cc([N+](=O)[O-])nc2O1 (stereo not drawn) [compound 27] | 1800 | 0.61 (≈ 0.242 µg/mL) | 840 | 0.085 (≈ 0.0338 µg/mL) | > 64 | 220 | 
CC1(COc2ccc(-c3ccc(F)cc3)cc2)CCn2cc([N+](=O)[O-])nc2O1 (stereo not drawn) [compound 52] | 340 | 1.4 (≈ 0.537 µg/mL) | 350 | 0.085 (≈ 0.0326 µg/mL) | > 64 | 200 | 
CC1(COc2ccc(-c3ccc(F)nc3)cc2)CCn2cc([N+](=O)[O-])nc2O1 (stereo not drawn) [compound 56] | 160 | 2.7 (≈ 1.04 µg/mL) | 300 | 0.29 (≈ 0.111 µg/mL) | > 64 | 120 | 
CC1(COc2ccc(-c3ccc(F)cc3F)cn2)CCn2cc([N+](=O)[O-])nc2O1 (stereo not drawn) [compound 63] | 110 | 2.5 (≈ 1.01 µg/mL) | 210 | 0.089 (≈ 0.0358 µg/mL) | > 64 |  | 
CC1(COc2cccc(-c3ccc(F)cc3)n2)CCn2cc([N+](=O)[O-])nc2O1 (stereo not drawn) [compound 101] | 180 | 5 (≈ 1.92 µg/mL) | 350 | 0.94 (≈ 0.361 µg/mL) | > 64 |  | 
CC1(COc2cccc(-c3ccc(F)cc3F)n2)CCn2cc([N+](=O)[O-])nc2O1 (stereo not drawn) [compound 103] | 240 | 4.8 (≈ 1.93 µg/mL) | 220 | 0.69 (≈ 0.278 µg/mL) | > 64 |  | 
CC1(COc2ccc(-c3ccc(F)nc3F)cn2)CCn2cc([N+](=O)[O-])nc2O1 (stereo not drawn) [compound 110] | 200 | 6.6 (≈ 2.66 µg/mL) | 430 | 1 (≈ 0.403 µg/mL) | > 64 |  | 
O=[N+]([O-])c1cn2c(n1)OC(COc1ccc(-c3ccc(C(F)(F)F)nc3)cn1)CC2 (stereo not drawn) [compound 111] |  | 2.5 (≈ 1.05 µg/mL) |  |  |  | 130 | 0.09 (≈ 0.0379 µg/mL)
O=[N+]([O-])c1cn2c(n1)OC(COc1ccc(-c3ccc(F)nc3)nc1)CC2 (stereo not drawn) [compound 112] |  | 21 (≈ 7.8 µg/mL) |  |  |  | 90 | 2.3 (≈ 0.854 µg/mL)
CC1(COc2ccc(-c3ccc(F)nc3)nc2)CCn2cc([N+](=O)[O-])nc2O1 (stereo not drawn) [compound 113] |  | 43 (≈ 16.6 µg/mL) |  |  |  | 90 | 2.7 (≈ 1.04 µg/mL)
O=[N+]([O-])c1cn2c(n1)OC(COc1ccc(-c3ccc(C(F)(F)F)nc3)nc1)CC2 (stereo not drawn) [compound 116] |  | 58 (≈ 24.4 µg/mL) |  |  |  | 70 | 0.12 (≈ 0.0506 µg/mL)
CC1(COc2cccc(-c3ccc(F)nc3)n2)CCn2cc([N+](=O)[O-])nc2O1 (stereo not drawn) [compound 118] | 1100 | 7.8 (≈ 3.01 µg/mL) | 520 | 11 (≈ 4.24 µg/mL) | > 64 |  | 
CC1(COc2cccc(-c3ccc(F)nc3F)n2)CCn2cc([N+](=O)[O-])nc2O1 (stereo not drawn) [compound 120] | 590 | 7.9 (≈ 3.19 µg/mL) | 490 | 9.3 (≈ 3.75 µg/mL) | > 64 |  | 
O=[N+]([O-])c1cn2c(n1)OC(CN1CCN(c3ccc(F)cc3)CC1)CC2 (stereo not drawn) [compound 142, 7-{[4-(4-Fluorophenyl)piperazin-1-yl]methyl}-2-nitro-6,7-dihydro-5H-imidazo[2,1-b][1,3]oxazine] |  | 9.9 (≈ 3.58 µg/mL) |  |  |  | 190 | 1.8 (≈ 0.65 µg/mL)
O=[N+]([O-])c1cn2c(n1)OC(CN1CCC(Oc3ccc(F)cc3)CC1)CC2 (stereo not drawn) [compound 152] |  | 22 (≈ 8.28 µg/mL) |  |  |  | 450 | 2 (≈ 0.753 µg/mL)
